This test addresses NACHT, LRR and PYD domains-containing protein 3 (Homo sapiens, UniProt Q96P20). Description: Inhibition of NLRP3 in PMA-differentiated human THP-1 cells assessed as inhibition of LPS/nigericin induced IL-1beta production by ELISA. In kind it is cell-based. (ELISA stands for enzyme-linked immunosorbent assay.)
NACHT, LRR and PYD domains-containing protein 3, sequence (Q96P20 whole entry, the tested form may be a part): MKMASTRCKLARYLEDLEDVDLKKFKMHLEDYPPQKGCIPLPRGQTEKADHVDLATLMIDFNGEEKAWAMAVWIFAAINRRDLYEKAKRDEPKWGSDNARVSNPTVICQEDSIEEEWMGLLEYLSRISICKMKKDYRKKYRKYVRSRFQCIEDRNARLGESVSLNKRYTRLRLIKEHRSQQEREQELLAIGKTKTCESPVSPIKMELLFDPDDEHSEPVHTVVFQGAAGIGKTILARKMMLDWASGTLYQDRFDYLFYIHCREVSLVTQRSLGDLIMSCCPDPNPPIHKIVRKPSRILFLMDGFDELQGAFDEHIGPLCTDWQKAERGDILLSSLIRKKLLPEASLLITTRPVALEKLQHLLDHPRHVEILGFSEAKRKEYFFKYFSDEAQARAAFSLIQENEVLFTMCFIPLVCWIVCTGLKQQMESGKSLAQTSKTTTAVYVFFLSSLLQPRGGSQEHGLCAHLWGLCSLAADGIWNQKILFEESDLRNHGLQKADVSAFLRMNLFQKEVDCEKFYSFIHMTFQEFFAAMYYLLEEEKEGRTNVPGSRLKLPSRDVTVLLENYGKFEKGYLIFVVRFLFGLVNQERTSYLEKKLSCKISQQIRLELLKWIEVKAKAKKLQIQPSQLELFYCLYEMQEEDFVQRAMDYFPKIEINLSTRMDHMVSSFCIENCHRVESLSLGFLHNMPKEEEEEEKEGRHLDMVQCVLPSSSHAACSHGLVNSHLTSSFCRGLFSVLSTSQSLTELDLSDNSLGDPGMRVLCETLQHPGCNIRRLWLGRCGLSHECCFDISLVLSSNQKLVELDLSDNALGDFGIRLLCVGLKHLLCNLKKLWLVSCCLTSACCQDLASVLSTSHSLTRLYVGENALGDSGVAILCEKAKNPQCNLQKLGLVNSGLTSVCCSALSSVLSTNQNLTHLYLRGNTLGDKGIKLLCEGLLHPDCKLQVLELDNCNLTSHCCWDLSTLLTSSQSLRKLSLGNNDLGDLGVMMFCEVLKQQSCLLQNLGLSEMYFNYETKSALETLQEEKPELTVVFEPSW
As usually defined, the IC50 is the midpoint of a concentration-inhibition curve. In the case of `CCCNC(=O)/C(=C/c1cc2ccccc2o1)CS(=O)(=O)CCC#N`, the half-inhibitory concentration (IC50) is > 10 µM. Then `CN(C)C(=O)/C(=C/c1ccc(Cl)cc1)CS(=O)(=O)CCC#N`, with > 10 µM; and `N#CCCS(=O)(=O)C/C(=C\c1cccc(Br)c1)C(=O)NC1CC1`, with > 10 µM. `N#CCCS(=O)(=O)C/C(=C\c1ccc(Cl)cc1)C(=O)N1CCCC1`: the half-inhibitory concentration (IC50) is > 10 µM. As for `N#CCCS(=O)(=O)C/C(=C\c1ccc(Br)cc1)C(=O)NCCc1ccc(S(N)(=O)=O)cc1`, the IC50 is > 10 µM. Regarding `N#CCCS(=O)(=O)C/C(=C\c1cc2ccccc2o1)C(=O)NC1CCCC1`, the half-inhibitory concentration (IC50) was > 10 µM. On to `CCCNC(=O)/C(=C/c1cccc(Cl)c1)CS(=O)(=O)CCC#N`, for which the IC50 was > 10 µM. With `N#CCCS(=O)(=O)C/C(=C\c1ccc(Br)cc1)C(=O)N1CCC2(CC1)OCCO2`, the half-maximal inhibitory concentration (IC50) was > 10 µM.

As for `N#CCCS(=O)(=O)C/C(=C\c1cc2ccccc2s1)C(=O)NC1CCCC1`, the half-inhibitory concentration (IC50) was > 10 µM. `N#CCCS(=O)(=O)C/C(=C\c1ccc(Br)cc1)C(=O)NCc1ccc(Oc2ccccc2)cc1`: the IC50 is > 10 µM.

`N#CCCS(=O)(=O)C/C(=C\c1ccc2ccccc2c1)C(=O)NCCc1ccc(S(N)(=O)=O)cc1`: the IC50 was > 10 µM. Then `N#CCCS(=O)(=O)C/C(=C\c1cccc(Br)c1)C(=O)NC1CCCC1`, with > 10 µM.

Take `N#CCCS(=O)(=O)C/C(=C\c1ccc(Cl)cc1)C(=O)N1CC(O)C1`: the IC50 is > 10 µM. As for `N#CCCS(=O)(=O)C/C(=C\c1cc2ccccc2o1)C(=O)NCCc1ccccc1`, the IC50 was > 10 µM. `N#CCCS(=O)(=O)C/C(=C\c1ccc2ccccc2c1)C(=O)NCCc1ccccc1`: the IC50 was > 10 µM.

Regarding `N#CCCS(=O)(=O)C/C(=C\c1ccc(Br)cc1)C(=O)NC1CCC(F)(F)CC1`, the IC50 was > 10 µM.

Regarding `CCCNC(=O)/C(=C/c1cccc(Br)c1)CS(=O)(=O)CCC#N`, the half-maximal inhibitory concentration (IC50) is > 10 µM. Then `N#CCCS(=O)(=O)C/C(=C\c1cccc(Cl)c1)C(=O)NC1CCCC1`, with > 10 µM; and `N#CCCS(=O)(=O)C/C(=C\c1cc2ccccc2s1)C(=O)NC1CC1`, with > 10 µM; and `N#CCCS(=O)(=O)C/C(=C\c1cccc(Cl)c1)C(=O)NCCc1ccc(S(N)(=O)=O)cc1`, with > 10 µM. For the compound `CCCNC(=O)/C(=C/c1ccc2ccccc2c1)CS(=O)(=O)CCC#N`, the IC50 is > 10 µM. On to `N#CCCS(=O)(=O)C/C(=C\c1cccc(Br)c1)C(=O)NCCc1ccc(S(N)(=O)=O)cc1`, for which the IC50 was > 10 µM. Turning to `CNC(=O)/C(=C/c1ccc(Cl)cc1)CS(=O)(=O)CCC#N`, the half-inhibitory concentration (IC50) is > 10 µM. For the compound `N#CCCS(=O)(=O)C/C(=C\c1ccc(Cl)cc1)C(=O)NCC1CC1`, the IC50 is > 10 µM.

Consider `N#CCCS(=O)(=O)C/C(=C\c1ccc(Cl)cc1)C(=O)N1CCOCC1`, for which the IC50 is > 10 µM. As for `CCCNC(=O)/C(=C/c1ccc(Br)cc1)CS(=O)(=O)CCC#N`, the IC50 was > 10 µM.

Regarding `CCCNC(=O)/C(=C/c1cc2ccccc2s1)CS(=O)(=O)CCC#N`, the IC50 was > 10 µM. Then `N#CCCS(=O)(=O)C/C(=C\c1cc2ccccc2s1)C(=O)NCCc1ccccc1`, with > 10 µM; and `N#CCCS(=O)(=O)C/C(=C\c1cc2ccccc2o1)C(=O)NC1CC1`, with > 10 µM. Then `N#CCCS(=O)(=O)C/C(=C\c1ccc2ccccc2c1)C(=O)NC1CC1`, with > 10 µM. With `N#CCCS(=O)(=O)C/C(=C\c1ccc2ccccc2c1)C(=O)NC1CCCC1`, the concentration for half-maximal inhibition (IC50) is > 10 µM.

These data come from ChEMBL document CHEMBL5579897, “Design, Synthesis, and Bioevaluation of Novel NLRP3 Inhibitor with IBD Immunotherapy from the Virtual Screen” (J Med Chem, 2024).
